The target of assay [1] is T1, MC4-R (Homo sapiens, UniProt P32245). The assay is described as follows: Competitive inhibition assay using [I^125]-NDP-α-MSH, hMC4-R membranes. The assay is classed as binding. The note with it: for inhibition at 1 µM: 1 μM test compound, read-out: Inhibition at 1 μM (NDP-α-MSH) In Normal System, MC4-R; for Ki: read-out: Ki (nM) (NDP-α-MSH) In Normal System, MC4-R. On the set-up: host or cells: TREx-293 (HEK-293 stably expressing Tet repressor). The method, boiled down:
(§1)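 Tracer was 0.4 nM for MC3-R and MC5-R, 0.2 nM for MC4-R and 0.1 nM for MC1-R. Bound radioactivity was gamma-counted after filtration; values are triplicate means, with results below 0% reported as 0%.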

The target in assay [2] is T1, MC4-R. The assay is described as follows: cAMP agonist stimulation, high receptor density system (10 ng/mL doxycycline). Particulars: for Efficacy/Intrinsic Activity: 10 ng/mL doxycycline, high receptor density hMC4-R system, NDP-α-MSH maximal cAMP = 1.0.
Assay [3] concerns the target T1, MC4-R. Put plainly: cAMP functional activity assay in HEK-293 cells, normal system. The format is cell-based. On the set-up: expressed in transfected cells; host or cells: HEK-293. The note with it: for intrinsic activity at MC4-R in a normal system / EC50: normal receptor density system; for intrinsic activity at MC4-R in a normal system: NDP-α-MSH = 1.0; for functional status at MC4-R in cAMP assay: normal system, 1 μM concentration where stated.

Assay [4] is described as follows: IP (and IN) food intake, mice. The format is in vivo. Particulars: mouse; for maximal decrease in food intake / inhibition in vivo at 10 mg/kg / inhibition in vivo at 3 mg/kg: 4 hours; for inhibition in vivo at 10 mg/kg / inhibition in vivo at 3 mg/kg: read-out: maximal decrease in food intake; for decrease in food intake: 20 hours. How it is done: IV and IP food intake and body weight change. Change in food intake and body weight was evaluated for selected compounds. Male Sprague-Dawley rats or male C57BL/6 mice were utilized. Animals were individually housed in conventional plexiglass hanging cages and maintained on a controlled 12 hour on/off light cycle. Water and powdered (LabDiet, 5P00 Prolab RMH 3000) or pelleted (Harlan Teklad 2018 18% Protein Rodent Diet) food was provided ad libitum. For 1 week before treatment, 24-hour food intake and body weight change was recorded to assess a baseline for the group during vehicle treatment. The rats were dosed IV with vehicle or selected compounds (0.5-3 mg/kg, and in some cases up to 10 mg/Kg) or dosed intraperitoneally (IP) with vehicle or selected compounds (0.5-10 mg/kg, and in some cases up to 50 mg/kg). Mice were dosed IP. […] The changes in body weight and food intake for the 48 hour and 72 hour periods after dosing were also measured to determined reversal of changes in body weight and food intake effects back to baseline levels.

For assay [5], the target named is T1, MC4-R. Put plainly: cAMP agonist stimulation, low receptor density system (0.1 ng/mL doxycycline). Particulars: for Efficacy/Intrinsic Activity: 0.1 ng/mL doxycycline, low receptor density hMC4-R system, NDP-α-MSH maximal cAMP = 1.0.
The next assay addresses MC5-R (Homo sapiens, UniProt P33032). The assay is described as follows: Competitive inhibition assay using [I^125]-NDP-α-MSH, hMC5-R membranes. On the set-up: expressed in transfected cells. Particulars: for inhibition at 1 µM: 1 μM test compound, read-out: Inhibition at 1 μM (NDP-α-MSH) In Normal System, MC5-R; for Ki: read-out: Ki (nM) (NDP-α-MSH) In Normal System, MC5-R. The assay is classed as binding. The method, boiled down: as §1

Another assay concerns the target T2, MC1-R (Mus musculus, UniProt Q01727).
T2 construct: B-16 mouse melanoma cells (containing MC1-R); endogenous in cells
The assay is described as follows: Competitive inhibition assay using [I^125]-NDP-α-MSH, B-16 mouse melanoma cell membranes. The assay is classed as binding. The note with it: for inhibition at 1 µM: 1 μM test compound, read-out: Inhibition at 1 μM (NDP-α-MSH) In Normal System, MC1-R; for Ki: read-out: Ki (nM) (NDP-α-MSH) In Normal System, MC1-R. The method, boiled down: as §1

The nature of assay [6]: Penile erection induction in male rats. The assay is classed as in vivo. The method, boiled down: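 Male Sprague-Dawley rats (200-250 g), groups of 4-8, dosed IV or ICV at various doses and observed individually for penile erections. Only statistically relevant increases over vehicle-control mean PEs count as induction; IV responses below 1.0 PEs/rat treated as equivocal, some retested ICV.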

In another assay the target is MC3-R (Homo sapiens, UniProt P41968). The assay is described as follows: Competitive inhibition assay using [I^125]-NDP-α-MSH, hMC3-R membranes. The format is binding. On the set-up: expressed in transfected cells. The note with it: for inhibition at 1 µM: 1 μM test compound, read-out: Inhibition at 1 μM (NDP-α-MSH) In Normal System, MC3-R; for Ki: read-out: Ki (nM) (NDP-α-MSH) In Normal System, MC3-R. The method, boiled down: as §1

A short description of assay [7]: ICV food intake and body weight change. The format is in vivo. The note with it: rat, 1 nmol, 24 hours. How it is done:
ICV food intake and body weight change. Change in food intake and body weight was evaluated for selected compounds. Rats with indwelling intracerebroventricular cannulas (ICV rats) were obtained from Hilltop Lab Animals, Inc. (Scottdale, Pa.). Animals were individually housed in conventional plexiglass hanging cages and maintained on a controlled 12 hour on/off light cycle. Water and powdered (LabDiet, 5P00 Prolab RMH 3000) or pelleted (Harlan Teklad 2018 18% Protein Rodent Diet) food was provided ad libitum. For 1 week before treatment, 24-hour food intake and body weight change was recorded to assess a baseline for the group during vehicle treatment. The rats were dosed ICV with vehicle or selected compounds (1-3 nmol). The changes in body weight and food intake for the 24 hour period after dosing were determined. The changes in body weight and food intake for the 48 hour and 72 hour periods after dosing were also measured to determine reversal of changes in body weight and food intake effects back to baseline levels.

Non-standard residues stand in square brackets, D forms with d. Residues, ends and D or L forms follow the SMILES beside them. *: point of attachment. dPhe(4-Cl) = N[C@H](Cc1ccc(Cl)cc1)C(=O)O; Ahp = NCCCCCCC(=O)O; Bn = c1ccc(C*)cc1

Five compounds from patent US20090081197A1 (Palatin Technologies, Inc., priority 2007, published 2009) can be followed below.

Sequence of MC3-R (P41968 whole entry): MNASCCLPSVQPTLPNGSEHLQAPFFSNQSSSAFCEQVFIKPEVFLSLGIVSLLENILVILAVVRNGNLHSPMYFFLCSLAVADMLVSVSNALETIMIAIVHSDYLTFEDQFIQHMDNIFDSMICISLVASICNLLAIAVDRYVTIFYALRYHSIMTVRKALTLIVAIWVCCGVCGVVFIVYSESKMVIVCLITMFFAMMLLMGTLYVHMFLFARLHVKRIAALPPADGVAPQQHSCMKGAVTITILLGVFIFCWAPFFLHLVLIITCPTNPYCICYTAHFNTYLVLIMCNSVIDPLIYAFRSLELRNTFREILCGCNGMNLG
Sequence of MC5-R (P33032 whole entry): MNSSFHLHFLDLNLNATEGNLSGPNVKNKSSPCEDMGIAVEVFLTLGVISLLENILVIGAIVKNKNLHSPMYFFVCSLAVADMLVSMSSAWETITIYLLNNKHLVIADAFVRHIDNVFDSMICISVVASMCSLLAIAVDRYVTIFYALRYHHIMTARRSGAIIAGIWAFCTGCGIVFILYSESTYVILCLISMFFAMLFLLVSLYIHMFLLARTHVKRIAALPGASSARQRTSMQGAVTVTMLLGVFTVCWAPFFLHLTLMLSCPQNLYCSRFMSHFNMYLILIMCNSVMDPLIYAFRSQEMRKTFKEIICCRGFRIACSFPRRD
T1 sequence (P32245 whole entry): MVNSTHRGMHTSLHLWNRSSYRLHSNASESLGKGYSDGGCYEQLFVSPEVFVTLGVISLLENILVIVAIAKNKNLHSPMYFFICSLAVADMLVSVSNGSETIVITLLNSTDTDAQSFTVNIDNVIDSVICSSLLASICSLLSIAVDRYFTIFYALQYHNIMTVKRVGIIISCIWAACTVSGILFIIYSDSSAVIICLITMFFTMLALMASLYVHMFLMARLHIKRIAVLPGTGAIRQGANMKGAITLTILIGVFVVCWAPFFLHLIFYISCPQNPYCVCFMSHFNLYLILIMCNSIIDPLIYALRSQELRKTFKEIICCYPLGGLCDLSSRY
T2 sequence (Q01727 whole entry): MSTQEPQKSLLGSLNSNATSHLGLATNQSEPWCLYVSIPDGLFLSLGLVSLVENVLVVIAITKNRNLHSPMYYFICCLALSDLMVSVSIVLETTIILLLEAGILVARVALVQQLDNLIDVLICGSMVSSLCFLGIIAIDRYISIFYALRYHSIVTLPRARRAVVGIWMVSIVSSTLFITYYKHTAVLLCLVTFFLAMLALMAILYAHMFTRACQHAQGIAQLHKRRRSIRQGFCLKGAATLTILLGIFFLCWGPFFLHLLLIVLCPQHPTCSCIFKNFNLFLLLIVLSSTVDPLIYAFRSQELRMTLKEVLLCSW

For `N=C(N)NCCC[C@H](NC(=O)[C@@H](Cc1ccc(Cl)cc1)NC(=O)[C@H](COCc1ccccc1)NC(=O)CCCCCCN)C(=O)N[C@@H](Cc1c[nH]c2ccccc12)C(N)=O` [Example 1, NH2—(CH2)6—C(═O)-Ser(Bzl)-(D)Phe(4-Cl)-Arg-Trp-NH2] (H-[Ahp]S(Bn)[dPhe(4-Cl)]RW-NH2), the inhibition (commonly the change of the read-out against control, counted positive when it falls) at 1 µM worked out at 99% on MC4-R [1], 73% on MC5-R, 33% on MC1-R and 94% at MC3-R. In addition, at MC4-R [1], the Ki – broadly, the dissociation constant of the complex between target and ligand, obtained from inhibition or displacement – was 3 nM. The EC50 – broadly, the midpoint of the concentration-response curve – at MC4-R [2] was found to be 21 nM. The “Efficacy/Intrinsic Activity” value was 0.97 on MC4-R [2] and “None” at MC4-R [5]. Further, the “intrinsic activity at MC4-R in a normal system” value (“intrinsic activity at MC4-R” below) on MC4-R [3] is 0.32. Also, at MC4-R [3], the “functional status at MC4-R in cAMP assay” value was “partial agonist (intrinsic activity between 0.1 (10%) and 0.7 (70%) is classified as a partial agonist)”. Also, the “maximal decrease in food intake” value in assay [4] (IN, 10 μg/kg) came to 16%; in [4] (IP, 3 mg/kg) it was 26%. For the same compound, in assay [6] (rat, ICV), the “Penile Erection ICV” value is on record as “No”. Further, the penile erection response entry in [6] (rat, ICV, 0.01 to 5 nmol) is given as “no penile erection response”. In [7], the “decrease in food intake” value is recorded as 21%.
Consider `CC(=O)N[C@H](Cc1ccc(Cl)cc1C)C(=O)N1C[C@@H](C)N(C(=O)Cc2ccc3ccccc3c2)C[C@@H]1CCCNC(=N)N` [Example 31, N-{(R)-1-(2-methyl, 4-chloro-benzyl)-2-[(2S,5R)-2-(3-guanidino-propyl)-5-methyl-4-(2-naphthalen-2-yl-acetyl)-piperazin-1-yl]-2-oxo-ethyl}-acetamide], for which the inhibition constant (Ki) is 5 nM at MC4-R [1], 234 nM at MC5-R, 1390 nM at MC1-R and 136 nM on MC3-R. In addition, the EC50 was 39 nM at MC4-R [2] and 3 nM on MC4-R [3]. The results for the “Efficacy/Intrinsic Activity” value on MC4-R [2] and on MC4-R [5] were 0.27 and “None”, respectively. The “intrinsic activity at MC4-R” value at MC4-R [3] is reported as 0.6. Moreover, the “functional status at MC4-R in cAMP assay” value at MC4-R [3] is “partial agonist (intrinsic activity between 0.1 (10%) and 0.7 (70%) is classified as a partial agonist)”. The inhibition in vivo at 10 mg/kg in [4] (IP, 10 mg/kg) was found to be 7%. In addition, in assay [6] (rat, IV), the “Penile Erection IV” value is listed as “No”. For the same compound, the penile erection response result in [6] (rat, IV, 0.0003 to 0.03 mg/kg) is given as “no penile activity response”.
With `CC(=O)N[C@H](Cc1ccc(C)cc1C)C(=O)N1C[C@@H](C)N(C(=O)Cc2ccc3ccccc3c2)C[C@@H]1CCCNC(=N)N` [Example 30, N-{(R)-1-(2,4 dimethyl-benzyl)-2-[(2S,5R)-2-(3-guanidino-propyl)-5-methyl-4-(2-naphthalen-2-yl-acetyl)-piperazin-1-yl]-2-oxo-ethyl}-acetamide], the Ki on MC4-R [1] amounted to 11 nM; at MC5-R it was 250 nM; on MC1-R, 1880 nM; at MC3-R it was 232 nM. For the same compound, the 50% effective concentration (EC50) on MC4-R [2] came out at 51 nM; at MC4-R [3] it was 9 nM. Moreover, the “Efficacy/Intrinsic Activity” value on MC4-R [2] is on record as 0.18; on MC4-R [5], “None”. In addition, the “intrinsic activity at MC4-R” value at MC4-R [3] worked out at 0.4. The “functional status at MC4-R in cAMP assay” value at MC4-R [3] was “partial agonist (intrinsic activity between 0.1 (10%) and 0.7 (70%) is classified as a partial agonist)”. The inhibition in vivo at 3 mg/kg in [4] (IP, 3 mg/kg) is 8%. For the same compound, the “Penile Erection IV” value in [6] (rat, IV) was “No”. The penile erection response entry in [6] (rat, IV, 0.0003 to 0.03 mg/kg) is “no penile activity response”.
In the case of `Cc1ccc(C[C@@H](N)C(=O)N2C[C@@H](C)N(C(=O)Cc3ccc4ccccc4c3)C[C@@H]2CCCNC(=N)N)c(C)c1` [Example 29], the inhibition at 1 µM is 85% at MC4-R [1], 7% at MC5-R, 0% at MC1-R and 25% on MC3-R. Besides, the Ki at MC4-R [1] was determined as 6 nM; on MC5-R, 1540 nM; at MC1-R, 431 nM; at MC3-R, 526 nM. Further, the figures for the EC50 on MC4-R [2], on MC4-R [3] and on MC4-R [5] were 34 nM, 46 nM and 45 nM, respectively. Also, the “Efficacy/Intrinsic Activity” value is reported as 0.77 at MC4-R [2] and 0.25 at MC4-R [5]. Further, the “intrinsic activity at MC4-R” value on MC4-R [3] is recorded as 0.8. The “functional status at MC4-R in cAMP assay” value on MC4-R [3] is “agonist (intrinsic activity of 0.7 (70%) or higher is classified as an agonist)”. The “decrease in food intake” value in [4] (IP, 3 mg/kg) stood at 3%; in assay [4] (IP, 10 mg/kg), 26%. Also, in [6] (IV, 0.0003 to 0.03 mg/kg), the “maximum mean PEs per rat” value is reported as 0.5. Further, the “Penile Erection IV” value in assay [6] (rat, IV) is “Yes*”. The animals responding entry in [6] (rat, IV, 0.0003 to 0.03 mg/kg) is on record as “no more than 50%”.
With `Cc1cc(Cl)ccc1C[C@@H](N)C(=O)N1C[C@@H](C)N(CCc2ccc3ccccc3c2)C[C@@H]1CCCNC(=N)N` [Example 26, N-{3-[1-[2(R)-Amino-3-(2-methyl, 4-chloro-phenyl)-propionyl]-5(R)-methyl-4-(2-naphthalen-2-yl-ethyl)-piperazin-2(S)-yl]-propyl}-guanidine], the inhibition at 1 µM worked out at 100% on MC4-R [1], 77% on MC5-R, 6% at MC1-R and 74% at MC3-R. The EC50 at MC4-R [2] amounted to 31 nM. In addition, the “Efficacy/Intrinsic Activity” value at MC4-R [2] is listed as 0.78; on MC4-R [5], “None”. Moreover, the “intrinsic activity at MC4-R” value on MC4-R [3] is recorded as 0.3. Also, the “functional status at MC4-R in cAMP assay” value at MC4-R [3] was “partial agonist (intrinsic activity between 0.1 (10%) and 0.7 (70%) is classified as a partial agonist)”. Besides, the inhibition in vivo at 3 mg/kg in [4] (IP, 3 mg/kg) is 44%. For the same compound, the inhibition in vivo at 10 mg/kg in assay [4] (IP, 10 mg/kg) turned out to be 86%. The “Penile Erection IV” value in assay [6] (rat, IV) is “No”. In assay [6] (rat, IV, 1 and 3 mg/kg), the penile erection response entry is “no penile erection”.
